Drawing on patent EP2431387A1, “A raft deficient yeast expression system for the production of recombinant membrane proteins” (Centre National de la Recherche Scientifique (C.N.R.S), priority 2010, dated 2012), this text covers Bmax for 3 compounds.

Experiment [1] has as its target T1, MTR1A (Homo sapiens, UniProt P48039).
Procedure: (§1) For saturation binding assays, increasing concentrations of radioactive ligands ranging from 1 to 30 nM were added to 10 µg of proteins diluted in binding buffer (30 mM HEPES, pH 7.7, 0.15 M NaCl and 0.1% BSA). […] Non-specific binding was determined by the addition of 10 µM « cold » ligands using spiperone, prazozine, yohimbine and melatonin for DRD2, ADRA1, ADR2B and MTR1A, respectively. After 1-h incubation at RT, the reaction was terminated by rapid filtration of the samples through GF/B filters presoaked in 1 % polyethylenimine. The filters were washed 3 times with ice-cold buffer (Tris-HCI 50 mM, pH 7.4), and the radioactivity was measured by liquid-scintillation counting. The equilibrium dissociation constant, KD and the maximal number of binding sites, Bmax for radioligands were determined. The data were expressed as the mean ± standard error (SE) for at least three independant experiments performed in triplicate. Data were fitted through non-linear regression analysis with the one-site saturation binding model using the Prism 4 program of GraphPad.
(§2) Saturation binding experiments were performed on CHAPS/CHS solubilized receptors the same way than described in Example 4 in order to test receptor activity and stability (FIG.5).
In experiment [2] the target is T1, MTR1A. This is another data set of the same source.
Procedure: as §1
In experiment [3] the target is T2, ADRA1A (Homo sapiens, UniProt P35348).
Procedure: as §1
Experiment [4] has as its target T2, ADRA1A. The note with it: ADRA1A solubilized (CHAPS/CHS) from membranes of erg6 cells.
Procedure: as §1, §2
For experiment [5], the target named is T3, DRD2 (Homo sapiens, UniProt P14416). The experiment is described as follows: Saturation radioligand binding assay on crude membranes of P. pastoris cells. The note with it: DRD2 expressed in membranes of erg6 cells.
T3 sequence (P14416 whole entry): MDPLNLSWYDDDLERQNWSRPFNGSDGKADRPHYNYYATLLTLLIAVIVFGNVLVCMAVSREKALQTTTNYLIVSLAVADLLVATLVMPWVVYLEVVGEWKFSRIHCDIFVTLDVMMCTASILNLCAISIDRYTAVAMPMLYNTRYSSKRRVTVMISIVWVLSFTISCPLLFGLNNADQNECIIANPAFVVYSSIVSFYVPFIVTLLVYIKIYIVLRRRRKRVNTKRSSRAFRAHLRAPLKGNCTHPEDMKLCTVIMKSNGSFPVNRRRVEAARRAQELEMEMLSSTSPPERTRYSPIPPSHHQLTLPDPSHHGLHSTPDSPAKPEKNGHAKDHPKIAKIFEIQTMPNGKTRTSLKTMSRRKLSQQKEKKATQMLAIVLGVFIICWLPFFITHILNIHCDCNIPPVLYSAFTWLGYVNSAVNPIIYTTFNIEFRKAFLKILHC
Procedure: as §1
The target in experiment [6] is T3, DRD2. The experiment is described as follows: Saturation radioligand binding assay on CHAPS/CHS solubilized receptors. The note with it: DRD2 solubilized (CHAPS/CHS) from membranes of erg6 cells.
Procedure: as §1, §2

Each structure is given as a SMILES string. Where two headings read alike, the source gives them in different places.

T1 sequence (P48039 whole entry): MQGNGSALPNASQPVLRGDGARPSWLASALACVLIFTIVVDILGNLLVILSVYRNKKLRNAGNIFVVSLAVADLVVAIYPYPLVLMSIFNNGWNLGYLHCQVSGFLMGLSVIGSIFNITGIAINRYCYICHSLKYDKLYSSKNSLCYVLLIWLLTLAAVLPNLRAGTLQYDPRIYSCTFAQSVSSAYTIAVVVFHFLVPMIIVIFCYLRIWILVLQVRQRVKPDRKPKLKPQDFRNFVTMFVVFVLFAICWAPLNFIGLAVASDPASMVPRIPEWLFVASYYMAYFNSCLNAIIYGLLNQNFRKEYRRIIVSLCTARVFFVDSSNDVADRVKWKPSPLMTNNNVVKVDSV
T2 sequence (P35348 whole entry): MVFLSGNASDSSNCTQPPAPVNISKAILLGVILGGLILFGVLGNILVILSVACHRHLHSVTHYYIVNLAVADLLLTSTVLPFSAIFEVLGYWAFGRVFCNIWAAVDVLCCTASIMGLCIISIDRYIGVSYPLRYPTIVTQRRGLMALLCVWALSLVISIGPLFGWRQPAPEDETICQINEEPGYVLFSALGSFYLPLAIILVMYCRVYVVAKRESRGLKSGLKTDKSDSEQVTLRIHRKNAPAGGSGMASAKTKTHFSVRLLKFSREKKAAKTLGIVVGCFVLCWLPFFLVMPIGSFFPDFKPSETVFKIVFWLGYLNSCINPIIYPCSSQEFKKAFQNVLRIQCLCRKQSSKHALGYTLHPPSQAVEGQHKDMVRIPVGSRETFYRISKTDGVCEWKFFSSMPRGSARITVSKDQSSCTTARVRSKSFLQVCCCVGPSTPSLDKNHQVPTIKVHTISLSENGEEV

As for `COc1ccc2[nH]cc(CCNC(C)=O)c2c1` [[3H]-Melatonin], the Bmax on MTR1A [1] (MTR1A solubilized (CHAPS/CHS) from membranes of WT cells) is 2.91 ± 0.29 pmol/mg; at MTR1A [1] (MTR1A solubilized (CHAPS/CHS) from membranes of erg6 cells), 5.13 ± 0.32 pmol/mg; on MTR1A [2] (MTR1A expressed in membranes of WT cells), 4.86 ± 0.38 pmol/mg; on MTR1A [2] (MTR1A expressed in membranes of erg6 cells), 1.35 ± 0.30 pmol/mg.
As for `COc1cc2nc(N3CCN(C(=O)c4ccco4)CC3)nc(N)c2cc1OC` [[3H]-Prazozine], the Bmax on ADRA1A [3] (ADRA1A expressed in membranes of WT cells) worked out at 15.72 ± 2.09 pmol/mg; at ADRA1A [3] (ADRA1A expressed in membranes of erg6 cells) it was 35.74 ± 1.11 pmol/mg; on ADRA1A [4] it was 11.34 ± 0.71 pmol/mg.
In the case of `O=C(CCCN1CCC2(CC1)C(=O)NCN2c1ccccc1)c1ccc(F)cc1` [[3H]-Spiperone], the Bmax stood at 62.20 ± 16.42 pmol/mg on DRD2 [5] and 42.79 ± 4.71 pmol/mg on DRD2 [6].
